Laboratory results taken from paper PMC12040169 (PLOS Biology, 2025).

Assay: in vitro
Conditions: human, hela cells, % viability

Structure (SMILES)	viability at 28.5 h, 10 µM
FC(F)(F)c1cccc(-c2nccnc2NCc2cccs2)c1 [CBK037298]	105%
CC(=O)c1ccc(-c2nccnc2NCCc2ccncc2)s1 [CBK037300]	99.9%
Oc1ccc(-c2nccnc2NCCc2ccncc2)cc1 [CBK037302]	94.3%
COc1cc(-c2nccnc2NCCc2ccccn2)cc(OC)c1OC [CBK037307]	91.4%
c1cn2cc(-c3ccc(N4CCOCC4)cc3)nc(NCC3CCOCC3)c2n1 [CBK037308]	96.3%
OCc1ccccc1-c1cncc(NCC2CCOCC2)n1 [CBK037309]	113%
Cc1cccc(C)c1-c1cn2ccnc2c(NC2CCOCC2)n1 [CBK037311]	91.6%
CCNc1nccnc1-c1ccccc1Cl [CBK037313]	79.9%
COCCNc1nc(-c2cccc3cccnc23)cn2ccnc12 [CBK037314]	95.3%
c1coc(-c2nccnc2NCCc2c[nH]c3ccccc23)c1 [CBK037316]	95.2%
COc1ncc(-c2nccnc2NCc2cccs2)c(OC)n1 [CBK037318]	95.9%
COc1cc(CNc2nccnc2-c2ccc(F)cc2)cc(OC)c1OC [CBK037328]	90.3%
OC1CCC(Nc2nc(-c3ccccc3)cn3ccnc23)CC1 (stereo not shown) [CBK037329]	98.5%
OCc1ccc(-c2nccnc2NCC2CC2)cc1 [CBK037334]	86%
Clc1ccccc1-c1nccnc1NCCc1c[nH]c2ccccc12 [CBK037337]	106%
c1coc(-c2nccnc2NCc2cccs2)c1 [CBK037340]	104%
Oc1cccc(-c2nccnc2NCc2cccs2)c1 [CBK037343]	88.8%
FC(F)(F)c1cccc(-c2nccnc2NCc2ccc3c(c2)OCO3)c1 [CBK037350]	94.2%
COc1ccc(C(=O)OC(C)(C)C)c(-c2nccnc2N2CCCN(C)CC2)c1 [CBK037360]	103%
CCCC/C=C/c1cncc(N2CCN(c3ccccc3C#N)CC2)n1 [CBK037369]	93.6%
CCNc1nc(-c2ccsc2)cn2ccnc12 [CBK037375]	87.9%
c1ccc(CCNc2nccnc2-c2ccncc2)nc1 [CBK037378]	89.3%

Structure (SMILES)	viability at 28.5 h, 10 µM
N#Cc1ccccc1N1CCN(c2cncc(-c3ccc(CO)cc3)n2)CC1 [CBK037383]	86.9%
Oc1cccc(-c2nccnc2NCCc2ccccn2)c1 [CBK037388]	104%
CC(C)[C@H](CO)Nc1nccnc1-c1ccco1 [CBK037390]	99%
CN(C)C(=O)COc1cccc(Nc2nc(-c3cccc4ccccc34)cn3ccnc23)c1 [CBK037393]	82.1%
COc1cc(Nc2nc(-c3c(OC)cccc3OC)cn3ccnc23)cc(OC)c1OC [CBK037395]	95.5%
COc1cc(CNc2nccnc2-c2cccc(CO)c2)cc(OC)c1 [CBK037403]	90.6%
CC(=O)c1ccc(-c2nccnc2N[C@@H](CO)C(C)C)s1 [CBK037404]	100%
CC(C)[C@H](CO)Nc1nccnc1-c1ccccc1CO [CBK037408]	98.2%
CN(Cc1ccccc1)c1nccnc1-c1ccccc1F [CBK037410]	95%
CN(Cc1ccccc1)c1nccnc1-c1cccnc1 [CBK037414]	93.5%
Fc1ccc(-c2nccnc2NCc2ccncc2)cc1Cl [CBK037422]	95.5%
COc1ccc(-c2cc(C(=O)Nc3cnc4ccccc4c3)cnc2-c2cccc(C)c2)cn1 [CBK037425]	89.8%
CCCS(=O)(=O)c1ccc2[nH]c(NC(=O)c3cnc(-c4ccccc4)c(-c4ccncc4)c3)nc2c1 [CBK037426]	100%
Cc1cccc(-c2ncc(C(=O)Nc3nccs3)cc2-c2ccco2)c1 [CBK037427]	86.3%
COc1cccc(NC(=O)c2cnc(-c3ccc(Cl)cc3)c(-c3ccco3)c2)c1OC [CBK037428]	103%
Brc1cn2ccnc2c(NCC2CC2)n1 [CBK037432]	93.6%
COc1ccc(-c2cc(C(=O)NCCc3ccncc3)cnc2-c2ccc(F)cc2)cc1 [CBK037434]	91.5%
O=C(NCC(O)c1ccc2ccccc2c1)c1cnc(-c2ccccc2)c(-c2ccncc2)c1 (stereo not shown) [CBK037438]	91%
CC(C)[C@@H](CO)Nc1nc(-c2ccc3ccccc3c2)cn2ccnc12 [CBK037445]	85.8%
OCc1cccc(-c2nccnc2NCc2ccncc2)c1 [CBK037446]	105%
Brc1cn2ccnc2c(Nc2ccc3[nH]ccc3c2)n1 [CBK037449]	102%
COc1cccc(CNc2nccnc2-c2ccc(S(C)(=O)=O)cc2)c1OC [CBK037452]	104%

Structure (SMILES)	viability at 28.5 h, 10 µM
Cc1cccc(CNc2nccnc2-c2ccncc2)c1 [CBK037453]	99.3%
Cc1cccc(-c2ncc(C(=O)NCCCN3CCCC3=O)cc2-c2ccco2)c1 [CBK037455]	96.5%
O=C(Nc1ccc(OC(F)(F)F)cc1)c1cnc(-c2ccc(Cl)cc2)c(-c2ccco2)c1 [CBK037456]	106%
O=C(Nc1ccc(CCO)cc1)c1cnc(-c2ccc(Cl)cc2)c(-c2ccco2)c1 [CBK037457]	97.5%
CCC(CO)NC(=O)c1cnc(-c2cccc(C)c2)c(-c2ccc(OC)cc2)c1 (stereo not shown) [CBK037460]	101%
CCC(CO)Nc1nc(-c2ccc(O)cc2)cn2ccnc12 (stereo not shown) [CBK037471]	106%
Clc1ccccc1-c1nccnc1NCc1ccncc1 [CBK037472]	89.2%
CCN(CCO)c1ccc(Nc2nc(Br)cn3ccnc23)cc1 [CBK037475]	98.9%
O=C(Nc1ccc(OC(F)(F)F)cc1)c1cnc(-c2ccc(Cl)cc2)c(-c2ccc(O)cc2)c1 [CBK037485]	109%
COc1ccc(-c2cc(C(=O)Nc3ccc(F)c(Cl)c3)cnc2-c2cccc(C)c2)cc1 [CBK037488]	93.3%
COc1ccc(-c2cc(C(=O)NCCc3ccncc3)cnc2-c2cccc(C)c2)cn1 [CBK037489]	99.1%
O=C(Nc1ccc(NC(=O)c2ccccc2O)cc1)c1cnc(-c2ccccc2)c(-c2ccncc2)c1 [CBK037490]	80.5%
CN(C)CCN1CCN(c2nc(Br)cn3ccnc23)CC1 [CBK037501]	91.3%
CN(Cc1ccccc1)c1nccnc1-c1ccccc1Cl [CBK037502]	103%
CC(=O)c1ccc(-c2nccnc2N(C)Cc2ccccc2)s1 [CBK037504]	112%
CS(=O)(=O)CCNC(=O)c1cnc(-c2ccc(F)cc2)c(-c2ccco2)c1 [CBK037505]	93.1%
COc1ncc(-c2nccnc2NCc2cccc(OC)c2OC)c(OC)n1 [CBK037506]	76.9%
CC(=O)c1ccc(-c2nccnc2NCc2cccc([N+](=O)[O-])c2)s1 [CBK037509]	106%
c1cc(CNc2nccnc2-c2ccsc2)ccn1 [CBK037513]	103%
COc1ccc(-c2cc(C(=O)Nc3ccccn3)cnc2-c2ccccc2)cn1 [CBK037519]	89.3%
CC(C)[C@H](CO)Nc1nc(-c2ccc(CCC(=O)O)cc2)cn2ccnc12 [CBK037522]	92.7%
COc1ccc(-c2nc(NC(=O)Cc3ccc(S(C)(=O)=O)cc3)cnc2-c2cccc(C)c2)cc1 [CBK037525]	88.2%

Structure (SMILES)	viability at 28.5 h, 10 µM
Oc1cccc(-c2cn3ccnc3c(NCc3ccccn3)n2)c1 [CBK037535]	102%
Nc1cccc(-c2nccnc2NCc2cccs2)c1 [CBK037537]	104%
CC(C)[C@@H](CO)Nc1nc(-c2cccnc2)cn2ccnc12 [CBK037539]	94%
Nc1cccc(-c2nc(NC(=O)Cc3ccccc3)cnc2-c2ccc(F)cc2)c1 [CBK037550]	91.3%
COc1ccc(-c2nc(NC(=O)Cc3ccccc3OC(F)(F)F)cnc2-c2cccc(C)c2)cc1 [CBK037551]	107%
COc1ccc(-c2cc(C(=O)Nc3nccs3)cnc2-c2ccc(Cl)cc2)cc1 [CBK037553]	87.4%
O=C(NCC(c1cccnc1)N1CCOCC1)c1cnc(-c2ccc(Cl)cc2)c(-c2ccco2)c1 (stereo not shown) [CBK037554]	100%
CCNC(=O)c1cnc(-c2cccc(C(F)(F)F)c2)c(-c2cccc(CO)c2)c1 [CBK037557]	94.7%
COc1ccc(-c2nc(NC(=O)c3ccc(S(N)(=O)=O)cc3)cnc2-c2cccc(C)c2)cc1 [CBK037559]	103%
COc1ccc(-c2cc(C(=O)NCCc3ccc(N)cc3)cnc2-c2ccc(Cl)cc2)cc1 [CBK037561]	91.6%
COc1ccc(-c2cc(C(=O)NCC(O)c3ccc4ccccc4c3)cnc2-c2ccccc2)cn1 (stereo not shown) [CBK037562]	103%
O=C(O)c1cccc(NC(=O)c2cnc(-c3cccc(C(F)(F)F)c3)c(-c3cccc(CO)c3)c2)c1 [CBK037565]	96%
O=C(Nc1cccnc1)c1cnc(-c2ccc(Cl)cc2)c(-c2cccnc2)c1 [CBK037568]	102%
Cc1cccc(-c2ncc(NC(=O)COc3ccc4ccccc4c3)nc2-c2ccc(N(C)C)cc2)c1 [CBK037575]	111%
COc1ccc2nc(NC(=O)c3cnc(-c4ccc(Cl)cc4)c(-c4cccnc4)c3)sc2c1 [CBK037576]	105%
CN(C)c1ccc(CC(=O)Nc2cnc(-c3ccc(F)c(Cl)c3)c(-c3ccco3)n2)cc1 [CBK037581]	97.9%
COc1ccc(-c2nc(NC(=O)Cc3ccc(N(C)C)cc3)cnc2-c2ccc(F)cc2)cn1 [CBK037582]	97.9%
CCNC(=O)c1cnc(-c2ccc(Cl)cc2)c(-c2cccnc2)c1 [CBK037584]	103%
O=C(NCCS(=O)(=O)c1ccccc1)c1cnc(-c2ccc(Cl)cc2)c(-c2ccncc2)c1 [CBK037587]	100%
N#Cc1ccccc1N1CCN(c2ccc(-c3ccccc3)cn2)CC1 [CBK037590]	97.8%
COc1ccc(NC(=O)c2cnc(-c3cccc(C(F)(F)F)c3)c(-c3ccncc3)c2)cc1 [CBK037593]	87.3%
Nc1ccc(-c2nc(NC(=O)c3cccs3)cnc2-c2ccc(F)cc2)cc1 [CBK037597]	94.2%
